From US6211215A, “Heterocyclic compounds, their production and use” (Takeda Chemical Industries, Ltd., priority 1996, dated 2001)

Tests used:
SKBR3 = test: Selective in vitro inhibition of breast cancer cell growth; type: cell-based; details: Homo sapiens, SK-BR-3, 72 h; Mammary cancer SKBR3; 3 days; SRB; read-out: IC50, inhibition of cell proliferation
Experimental: (§1) 100 μl (containing 2,000 cells) of a cell suspension of various human breast cancer cell lines shown in [Table 6] was seeded in each well of the 96-well microtiter plates. The cells were incubated at 37° C. in a 5% carbon dioxide gas incubator. Next day, 100 μl of a 2 fold serial dilution of a compound solution was added to each well. The cultures were incubated for 3 days. The solution containing the compound was removed and the cells were washed with water. To the cells was added a 0.4% (V/W) dye SRB (dissolved in 1% acetic acid) solution to fix and stain the cell protein. The dye solution was removed and the fixed and stained cell protein was washed. The protein-bound dye was extracted with 200 μl of 10 mM Tris buffer. The optical density of the extracted dye was determined at the wavelength of 540 nm to estimate the quantity of the cells in terms of the protein quantity. Designating the protein quantity in the control to which no compound solution was added as 100%, the proportion of the residual protein quantity in each treated group was calculated, and IC50, which was the concentration of the compound required to inhibit the residual protein quantity to 50% the quantity of the control, was calculated.

BT-474 = test: as above; type: cell-based; details: Homo sapiens, 72 h; Mammary cancer BT-474; 3 days; SRB; read-out: IC50, inhibition of cell proliferation
Experimental: as §1

MDA-MB-453 = test: as above; type: cell-based; details: Homo sapiens, 72 h; Mammary cancer MDA-MB-453; 3 days; SRB; read-out: IC50, inhibition of cell proliferation
Experimental: as §1

MDA-MB-468 = test: as above; type: cell-based; details: Homo sapiens, 72 h; Mammary cancer MDA-MB-468; 3 days; SRB; read-out: IC50, inhibition of cell proliferation
Experimental: as §1

T-47D = test: as above; type: cell-based; details: Homo sapiens, T47D, 72 h; Mammary cancer T-47D; 3 days; SRB; read-out: IC50, inhibition of cell proliferation
Experimental: as §1

HSC-1 = test: as above; type: cell-based; details: Homo sapiens, 72 h; Epidermal cancer HSC-1; 3 days; SRB; read-out: IC50, inhibition of cell proliferation
Experimental: as §1

[1] = test system: human mammary cancer cell line; test: Selective in vitro inhibition of breast cancer cell growth (panel of cell lines, Test Example 6); type: cell-based; details: Table 6 cell lines
Experimental: as §1

HER2 = HER2 (Homo sapiens, UniProt P04626); test: Inhibition of the activity of human growth factor receptor (HER2) tyrosine kinase; type: biochemical; design: the tyrosine kinase domain of the human HER2 gene was cloned; made in house; host or cells: insect cell line SF-21 (recombinant insect virus vector); details: HER2 receptor type tyrosine kinase; ELISA with HER3 substrate; read-out: Concentration of inhibiting HER2 (IC50)
Sequence of HER2 (P04626 720-987 limits assumed): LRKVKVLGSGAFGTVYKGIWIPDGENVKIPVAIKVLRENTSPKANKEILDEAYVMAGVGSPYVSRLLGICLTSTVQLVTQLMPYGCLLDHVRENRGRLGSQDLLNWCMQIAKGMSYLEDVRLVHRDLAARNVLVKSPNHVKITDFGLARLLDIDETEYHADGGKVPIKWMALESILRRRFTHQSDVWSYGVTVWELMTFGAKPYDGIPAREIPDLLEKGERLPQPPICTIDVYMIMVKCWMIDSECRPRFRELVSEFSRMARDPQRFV
Description: As enzyme standard, the tyrosine kinase domain of the human HER2 gene was cloned to prepare the recombinant gene of insect virus vector, with which the insect cell line SF-21 was infected to produce an enzyme protein (Guy P. M. et al., Journal of Biological Chemistry Vol. 267, pp.13851-13856, 1992). As substrate, the phosphorylated tyrosine domain of the HER3 protein was cloned to prepare the recombinant gene of plasmid vector with which Escherichia Coli strain JM109 was infected to give an enzyme protein (Sierke S. L. et al., Biochemistry Vol. 32, pp.10102-10108, 1993). The enzymatic reaction was performed by the enzyme-linked immunological method which consisted of fixing the substrate protein in wells of a 96-well microtiter plate, adding the enzyme into the wells and quantitating phosphorylated tyrosine, which was the reaction product, by use of the anti-phosphorylated tyrosine antibody (Cleaveland J. S. et al., Analytical Biochemistry Vol. 190, pp249-253, 1990).

Structure (SMILES): C(=C\c1nc(COc2ccc(CCCn3ccnc3)cc2)co1)/c1ccccc1 [Compound 8, 4-[4-[3-(1-imidazolyl)propyl]phenoxymethyl]-2-[(E)-2-phenylethenyl]oxazole]
- IC50 (SKBR3): 1000 nM
- IC50 (BT-474): 290 nM
- IC50 (MDA-MB-453): 250 nM
- IC50 (MDA-MB-468): 520 nM
- IC50 (T-47D): 570 nM
- IC50 (HSC-1): 2100 nM
- Selective inhibition of cell growth [1]: inhibit specifically the cell growth of human mammary cancer cell line
- IC50 (HER2): 20000 nM
